This data set in a line: Suspension equilibration of a Form A / Form B mixture in ethyl acetate, product identified by X-ray powder diffraction. In kind it is physicochemical. The settings on record: 7 mg Form A and 7 mg Form B suspended in 1 ml ethyl acetate, stirred 16 hours at 25° C.; Form A obtained by XRPD. The protocol:
7 mg rizatriptan benzoate Form A and 7 mg Form B are suspended in 1 ml ethyl acetate, and stirred 16 hours at 25° C. After filtration, a white powder is obtained.
X-ray powder diffraction measurements were performed on a Philips 1710 powder X-ray diffractometer using Cu Kα radiation (Cu Kα1=1.54060 Å). The X-ray source is operated at 45 kV and 45 mA. Spectra are recorded at a step size of 0.02° with a counting time of 2.4 seconds per step. The accuracy of the 2 theta values of conventionally recorded powder X-ray diffraction patterns is generally ±0.1-0.2°. For sample preparation, about 40 mg of substance was prepared into circular shaped quartz sample holders of 0.5 mm depth and 10 mm width.

The structures appear in SMILES notation.

On to `CN(C)CCc1c[nH]c2ccc(Cn3cncn3)cc12` [Form A, N,N-dimethyl-5-(1H-1,2,4-triazol-1-ylmethyl)-1H-indole-3-ethanamine benzoate], for which the “relative thermodynamic stability of the crystalline form” value is on record as “thermodynamically most stable form”. For the compound `CN(C)CCc1c[nH]c2ccc(Cn3cncn3)cc12` [Form B, N,N-dimethyl-5-(1H-1,2,4-triazol-1-ylmethyl)-1H-indole-3-ethanamine benzoate], the “relative thermodynamic stability of the crystalline form” value is given as “metastable form”.
